Assay results: patent publication US8772299B2, “Phenyl piperazine compounds, pharmaceutical composition including the same and use thereof” (SK Biopharmaceuticals Co., Ltd., priority 2008, dated 2014)
Structures can show the parent of a compound that is named as a salt.

Key:
mice [1] = test: Anti-Marble Burying Behavior Test in Mice; format: in vivo; conditions: Mus musculus, reduction in number of marbles buried, ip
Source text: Marble burying was developed and validated as a pre-clinical assay of potential anxiolytic activity (Andrews and Broekkamp (1993). Procedures to Identify Anxiolytic or Anxiogenic agents. In Behavioural Neuroscience, ed. A Sahgal, pp. 37-54. IRL Press, Oxford). The marble burying test places a naive mouse into a novel environment containing 25 marbles (arranged on top of a sawdust surface). A reduction in the number of marbles buried by the mouse was hypothesized to be an anxiolytic-like effect.

mice [2] = test: Tail Suspension Test in Mice (TST); format: in vivo; conditions: reduction in immobility vs control group, po; for % reduction: 30 mg/kg; for inhibition in vivo at 1 mg/kg: Mus musculus
Source text: Tail Suspension Test in mice is the well-known animal model to determine antidepressant efficacy of compounds by checking escaping behavior and immobility time of mice. Mice treated with antidepressant drug show escaping behavior continuously comparing with control group.
The mice were mainly treated orally with the test compound dissolved in 30% PEG400 or with only 30% PEG400 as control. Tail of mouse is suspended to the rod of TST equipment and end of tail is fixed with sticky tape. Suspended mouse is incubated during 2 min for training and adaptation and after following 2 min, observe escaping behavior and check immobility time for 4 min. The potent ability of the compounds was determined as percent value of reduction in immobility comparing to control group as 100% baseline.

[3] = biological target: T1, Serotonin 1A (5-HT1A) receptor (Rattus norvegicus, UniProt P19327); test: Serotonin 1A (5-HT1A) receptor inhibition assay, [3H]8-OH-DPAT binding to rat cortex membranes; set-up: species or system Sprague-Dawley (SD) rats; conditions: 10 nM test compound; 0.92 nM [3H]8-OH-DPAT; rat cortex homogenate; 60 min at 25° C.
T1 construct: The cortex tissue were homogenized in 30 volumes of ice-cold 50 mM Tris-HCl buffer; from tissue; host or cells: Sprague-Dawley rat brain cortex membranes
T1 sequence (P19327 1-422): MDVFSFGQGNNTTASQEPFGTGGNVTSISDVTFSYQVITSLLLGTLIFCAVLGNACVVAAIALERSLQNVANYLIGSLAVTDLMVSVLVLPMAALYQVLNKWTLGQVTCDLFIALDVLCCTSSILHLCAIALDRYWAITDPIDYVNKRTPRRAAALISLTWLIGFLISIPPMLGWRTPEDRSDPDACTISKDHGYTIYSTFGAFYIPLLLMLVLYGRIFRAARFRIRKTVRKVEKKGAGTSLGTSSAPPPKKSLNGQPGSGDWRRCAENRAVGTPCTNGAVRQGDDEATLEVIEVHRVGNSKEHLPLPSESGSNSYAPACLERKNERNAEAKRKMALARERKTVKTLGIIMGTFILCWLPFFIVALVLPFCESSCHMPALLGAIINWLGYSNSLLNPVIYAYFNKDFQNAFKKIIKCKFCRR
Description: The method to test the ability of compounds to inhibit serotonin 1A(5-HT1A) receptors was using Hall. et al., J Neuro Chem., 1985, 44, p 1685-1696 with modification.
The Sprague-Dawley (SD) rats were killed by decapitation and their brains rapidly removed at 4° C. The cortex tissue were homogenized in 30 volumes of ice-cold 50 mM Tris-HCl buffer (pH7.4) using an ultra-turrax T8 and centrifuged at 48,000 g for 20 min. The supernatant was discarded and the pellet washed twice by resuspension in 20 volumes Tris-HCl and centrifugation, homogenized in 20 volumes Tris-HCl, and incubated at 37° C. for 10 min. Membranes were than collected by centrifugation and washed twice before final resuspension in 10 volumes of 50 mM Tris-HCl, pH7.4.
For binding assays, the incubation medium consisted of 162.5 ug of tissue homogenate, 0.92 nM of [3H]8-OH-DPAT and vehicle or 10 uM of 5-HT or 10 nM of test compounds per well. 5-HT and test compounds were dissolved in distilled water and incubation medium was 50 mM Tris(pH7.4 at room temperature). The assay plates (96 well) were incubated for 60 min at 25° C. The reaction was terminated by rapid filtration using a Tomtec harvester, through GF/C glassfibre filter with 5 times washes of Tris buffer. The radioactivity retained on the filters was counted by scintillation spectroscopy (MicroBeta TriLux, Wallac). The tests were triplicates. Percent inhibition was calculated as below equation.
Total binding is the value of vehicle treated group and specific binding is the values that deduct non-specific binding (i.e. the value of non-specific ligand, 5-HT).

| inhibition at 0.01 µM [3] [%] | Compound | inhibition in vivo at 1 mg/kg (mice [2]) [%] | other results |
| --- | --- | --- | --- |
|  | O=C1CC2(CCCC2)CC(=O)N1CCCCN1CCN(c2ncccn2)CC1 [Buspirone, reference compound] |  | inhibition in vivo at 20 mg/kg (mice [1]; 20 mg/kg): 56% |
|  | CN(C)CCC[C@@]1(c2ccc(F)cc2)OCc2cc(C#N)ccc21 [Estalopram, reference compound] |  | % reduction (mice [2]): 47, at 30 mg/kg, po % |
| 83.1 | COc1ccccc1N1CCN(CCCCOc2ccc(Cn3ccnc3)cc2)CC1 [Example 1, 1-[4-(4-imidazol-1-ylmethyl-phenoxy)-butyl]-4-(2-methoxy-phenyl)-piperazine] |  | inhibition in vivo at 3 mg/kg (mice [1]): 28.7% |
| 80.3 | COc1ccccc1N1CCN(CCCCOc2ccc(Cn3cncn3)cc2)CC1 [Example 2, 1-(2-methoxy-phenyl)-4-[4-(4-[1,2,4]triazol-1-ylmethyl-phenoxy)-butyl]-piperazine] |  | inhibition in vivo at 3 mg/kg (mice [1]): 93.3% |
| 81.6 | COc1ccccc1N1CCN(CCCCOc2cccc(Cn3ncnn3)c2)CC1 [Example 8, 1-(2-methoxy-phenyl)-4-[4-(3-tetrazol-2-ylmethyl-phenoxy)-butyl]-piperazine hydrochloride] | 19.6 |  |
| 69.5 | COc1ccccc1N1CCN(CCCCOc2ccc(Cn3nnnc3C)cc2)CC1 [Example 18, 1-(2-methoxy-phenyl)-4-{4-[4-(5-methyl-tetrazol-1-ylmethyl)-phenoxy]-butyl}-piperazine] | 14.7 |  |
| 68.5 | COc1ccccc1N1CCN(CCCCOc2ccc(CN3CCCCC3)cc2)CC1 [Example 20, 1-(2-methoxy-phenyl)-4-[4-(4-piperidin-1-ylmethyl-phenoxy)-butyl]-piperazine] |  | inhibition in vivo at 7.5 mg/kg (mice [1]): 27% |
| 38.3 | COc1ccccc1N1CCN(CCCCOc2ccc(Cn3cnc(Cl)c3Cl)cc2)CC1 [Example 30, 1-{4-[4-(4,5-dichloro-imidazol-1-ylmethyl)-phenoxy]-butyl}-4-(2-methoxy-phenyl)-piperazine] |  |  |
| 30.3 | Clc1ccccc1N1CCN(CCCCOc2ccc(Cn3ncnn3)cc2)CC1 [Example 31, 1-(2-chloro-phenyl)-4-[4-(4-tetrazol-2-ylmethyl-phenoxy)-butyl]-piperazine] |  |  |
|  | COc1ccccc1N1CCN(CCCCOc2ccc(CN3CCOCC3)cc2)CC1 [Example 32, 4-(4-{4-[4-(2-methoxy-phenyl)-piperazin-1-yl]-butoxy}-benzyl)-morpholine] |  | inhibition in vivo at 7.5 mg/kg (mice [1]): 27.8% |
| 73.3 | CN1CCN(Cc2ccc(OCCCCN3CCN(c4ccccc4Cl)CC3)cc2)CC1 [Example 35] |  |  |
| 24.8 | Cc1nnnn1Cc1ccc(OCCCCN2CCN(c3cccc(Cl)c3Cl)CC2)cc1 [Example 37, 1-(2,3-Dichloro-phenyl)-4-{4-[4-(5-methyl-tetrazol-1-ylmethyl)-phenoxy]-butyl}-piperazine] |  |  |
| 29.4 | Cc1nnn(Cc2ccc(OCCCCN3CCN(c4cccc(Cl)c4Cl)CC3)cc2)n1 [Example 38, 1-(2,3-Dichloro-phenyl)-4-{4-[4-(5-methyl-tetrazol-2-ylmethyl)-phenoxy]-butyl}-piperazine] |  |  |
| 82.1 | CN1CCN(Cc2ccc(OCCCCN3CCN(c4cccc(Cl)c4Cl)CC3)cc2)CC1 [Example 41] | 14.1 |  |
| 36.2 | Clc1ccccc1N1CCN(CCCCOc2ccc(Cn3ccnn3)cc2)CC1 [Example 42, 1-(2-chloro-phenyl)-4-[4-(4-[1,2,3]triazol-1-ylmethyl-phenoxy)-butyl]-piperazine] |  |  |
| 17.4 | Clc1cccc(N2CCN(CCCCOc3ccc(Cn4ccnn4)cc3)CC2)c1Cl [Example 44, 1-(2,3-dichloro-phenyl)-4-[4-(4-[1,2,3]triazol-1-ylmethyl-phenoxy)-butyl]-piperazine] |  |  |
| 45 | COc1ccccc1N1CCN(CCCCOc2ccc(CCn3nccn3)cc2)CC1 [Example 49, 1-(2-methoxy-phenyl)-4-{4-[4-(2-[1,2,3]triazol-2-yl-ethyl)-phenoxy]-butyl}-piperazine] | 34.3 |  |
| 62 | COc1ccccc1N1CCN(CCCCOc2ccc(CCn3cnnn3)cc2)CC1 [Example 52, 1-(2-methoxy-phenyl)-4-{4-[4-(2-tetrazol-1-yl-ethyl)-phenoxy]-butyl}-piperazine] | 26.4 |  |
| 46 | COc1ccccc1N1CCN(CCCCOc2ccc(CCn3nnnc3C)cc2)CC1 [Example 53, 1-(2-Methoxy-phenyl)-4-(4-{4-[2-(5-methyl-tetrazol-1-yl)-ethyl]-phenoxy}-butyl)-piperazine] |  |  |
| 71 | COc1ccccc1N1CCN(CCCCOc2ccc(CCn3nnc(C)n3)cc2)CC1 [Example 54, 1-(2-Methoxy-phenyl)-4-(4-{4-[2-(5-methyl-tetrazol-2-yl)-ethyl]-phenoxy}-butyl)-piperazine] | 31.8 |  |
| 24.3 | Clc1ccccc1N1CCN(CCCCOc2ccc(Cn3nccn3)cc2)CC1 [Example 56, 1-(2-chloro-phenyl)-4-[4-(4-[1,2,3]triazol-2-ylmethyl-phenoxy)-butyl]-piperazine] |  |  |
|  | CNCCC(Oc1ccc(C(F)(F)F)cc1)c1ccccc1 (stereo not drawn) [Fluxetine, reference compound] |  | % reduction (mice [2]): 49. at 30 mg/kg, po % |

| Compound | inhibition at 0.01 µM [3] [%] | inhibition in vivo at 1 mg/kg (mice [2]) [%] | other results |
| --- | --- | --- | --- |
| COc1ccccc1N1CCN(CCCCOc2ccc(CNc3ccccc3)cc2)CC1 [Example 21, (4-{4-[4-(2-methoxy-phenyl)-piperazin-1-yl]-butoxy}-benzyl)-phenyl-amine] | 38.2 |  | inhibition in vivo at 3 mg/kg (mice [1]): 29.9% |
| CN(C)Cc1ccc(OCCCCN2CCN(c3ccccc3Cl)CC2)cc1 [Example 33, (4-{4-[4-(2-Chloro-phenyl)-piperazin-1-yl]-butoxy}-benzyl)-dimethyl-amine] | 53.7 | 26.8 |  |
| CN(C)Cc1ccc(OCCCCN2CCN(c3cccc(Cl)c3Cl)CC2)cc1 [Example 39, (4-{4-[4-(2,3-dichloro-phenyl)-piperazin-1-yl]-butoxy}-benzyl)-dimethyl-amine] | 52.9 | 30.4 |  |
| Clc1cccc(N2CCN(CCCCOc3ccc(CN4CCOCC4)cc3)CC2)c1Cl [Example 40, 4-(4-{4-[4-(2,3-Dichloro-phenyl)-piperazin-1-yl]-butoxy}-benzyl)-morpholine] | 45.6 | 10.6 |  |
| COc1ccccc1N1CCN(CCCCOc2ccc(CNc3nncs3)cc2)CC1 [Example 43, (4-{4-[4-(2-Methoxy-phenyl)-piperazin-1-yl]-butoxy}-benzyl)-[1,3,4]thiadiazol-2-yl-amine] | 95.6 |  |  |
| COc1ccccc1N1CCN(CCCCOc2ccc(CNc3cc(C)on3)cc2)CC1 [Example 45, (4-{4-[4-(2-Methoxy-phenyl)-piperazin-1-yl]-butoxy}-benzyl)-(5-methyl-isoxazol-3-yl)-amine] | 73.8 |  |  |
| COc1ccccc1N1CCN(CCCCOc2ccc(CNc3cc(C)no3)cc2)CC1 [Example 46, (4-{4-[4-(2-methoxy-phenyl)-piperazin-1-yl]-butoxy}-benzyl)-(3-methyl-isoxazol-5-yl)-amine] | 64.6 |  |  |
